# Source: patent US7842683B2, “Neurotherapeutic compositions and method” (Revaax Pharmaceuticals, LLC, priority 1999, dated 2010)
# “And” between values parts separate entries of the source, which are not always exact repeats. Equal values may be shown once. Read-outs that look alike come from different tables or passages of the source.
# How the values were obtained:
# [1] = system: male hamsters; experiment: Novelty test, stress-induced release of cortisol; assay type: in vivo; conditions: 10 μg/kg IP
# Experimental: The simple procedure of placing an adult male hamster into a novel environment for 5 min causes a significant, predictable increase in blood levels of cortisol (Weinberg and Wong 1986). This novelty test was used to assess the effects of CLAV on stress-induced release of cortisol. Two groups of male hamsters were treated IP with either CLAV (10 μg/kg, n=6), or saline vehicle (n=4). A third group (n=4) received no treatment or isolation stress and served as a control for basal levels of cortisol. Sixty min after treatment animals were taken from their home cage and placed into a novel cage for 5 min. Afterwards animals were sacrificed by decapitation and trunk blood collected for radioimmunoassay of cortisol. All animals were tested under reverse light:dark conditions four hrs into the dark cycle. Data were compared with a one-way ANOVA followed by Fisher PLSD post hoc tests.
# [2] = system: Male Wistar rats; experiment: Elevated plus-maze (anxiolytic activity); assay type: in vivo, rat
# [3] = cited from earlier work
# [4] = approximately 7-10 mg/kg/day, intravenous as TIMENTIN; cited from earlier work
# [5] = system: bacteria; conditions: cited from earlier work
# [6] = system: male hamsters; experiment: Radial arm maze (spatial memory); assay type: in vivo; conditions: 50 μg/kg
# Source text: The radial arm maze is one of the most commonly used methods for testing spatial learning and memory in rodents. Developed by Olton and co-workers (1976), it provides the simultaneous choice of several alternative paths for the test subject. Animals must learn which locations provide food (place learning) using visuospatial cues. Experimental Trials: The experimental trials consist of three phases (described below). The arms of the maze are numbered clock-wise from one to seven with arm number one being the arm furthest to the right side of the maze. All trials are […]. When not being tested, all hamsters have unlimited access to water. […] Trials within all the phases are conducted on successive days. Phase One: Phase One consists of five 15 min trials. Prior to the beginning of each of the five trials in Phase One, four sunflower seeds are placed at the ends of arms one, two, and three. Arms four, five, six, and seven remain empty. Phase Two: Phase Two of the experimental trials are identical to Phase One except that the seeds are placed in arms two, four, and seven. […] Coding of Behaviors: An arm entry was scored if all four paws of a hamster crossed an arm threshold. A full arm entry into an arm is scored if a hamster's snout touches the top of the block at the end of an arm or if their snout passes the block. […] In addition, the number of seeds pouched by the hamsters was scored. […]
# [7] = system: adolescent male rhesus macaques; experiment: Social behavior in non-human primates; assay type: in vivo; conditions: 1 mg/kg IM
# Experimental: Eight, two year old adolescent male rhesus macaques were tested with Mox. Animals were raised with their mothers in a group setting at a field station. At one year of age, they were transferred to individual cages. Each day thereafter, they were paired housed for two-three hrs. The adolescent partners were always the same. […] The display of social behaviors in this arrangement are very robust because of the limited amount of time the monkeys spend together. During the experiment the monkeys were paired in the “play-cage” where they were video taped for one hour. The study was designed so that behavioral data were obtained for each monkey under Mox and vehicle treatment. The treatment was an ABA type schedule of administration: Day 1—one member of each pair received 0.9% NaCl vehicle, Day 2—drug, Day 3—vehicle. Only one member of a pair was injected on a test day. The other member of a pair was injected a week later according to the same ABA schedule. […] Animals were video taped sixty minutes after injection for a one hr observation period. Animals were scored for over forty different behaviors (Winslow et al., 1988). Only twenty-eight are listed on TABLE I. The unreported behaviors, e.g., self-bites, vocalizations, clinging, mounts, escapes, self grooming were so infrequent that they were omitted from the analysis. Paired t-test was run for each behavioral measure.
# [8] = system: vasopressin V1A receptor; experiment: Membrane binding assay, competition for I125 HO-LVA; conditions: 1 μM, hamster liver membrane preparation
# Source text: (§1) Vasopressin and serotonin are both critical neurotransmitters in the control of offensive aggression in male hamsters (Ferris et al., 1998). These two neurotransmitters also are implicated in the control of human aggression (Coccaro et al., 1998). Vasopressin facilitates aggressive behavior while serotonin inhibits aggression, in part, by inhibiting the activity of the vasopressin system. Blockade of vasopressin V1A receptors and stimulation of serotonin 5HT1A receptors in the anterior hypothalamus blocks offensive aggression (Ferris et al., 1999). […] To test this notion Mox was tested in a membrane binding assay for competition for the V1A receptor (Ferris et al., 1994) and in a receptor autoradiography assay for competition for the 5HT1A receptors (Ferris et al., 1999).
# [9] = system: serotonin 5HT1A receptors; experiment: Receptor autoradiography, competition for I125 DPAT; assay type: binding; conditions: tissue sections of the hamster brain
# Source text: as §1
# [10] = system: Amino Acid, Adrenergic, Serotonergic, and Dopaminergic Receptors and Their Transporters; experiment: NOVASCREEN screen of thirty-six receptor and transporter binding assays; conditions: 100 nM, duplicate samples
# Source text: Moxalactam was screened in thirty-six different binding assays by NOVASCREEN, a contract research organization based in Hanover, Md. […] These assays were chosen because their respective receptor or transporter may play a role in the pathophysiology of mental illness. […] [table] [table] [table] [table] [table]
# [11] = cited from earlier work; remark: listed apart in the source
# [12] = system: gram-negative meningitis; conditions: 241 of 260; 4 g every 8 hrs for 2-3 weeks; cited from earlier work
compound,measurement,setting,value
"O=C(O)[C@H]1/C(=C/CO)O[C@@H]2CC(=O)N21 [CLAV, Clavulanic acid]",effect on the release of cortisol in response to mild stress,[1],no ostensible effect
same,"blood level of cortisol vs untreated, non-stressed control","[1]; sixty min, 5 min novel cage",more than twice
same,"effective dose, times less than CDP",[2]; CLAV 100 ng/kg vs CDP 10 mg/kg,"100,000 times"
same,open arm entries,"[2]; daily IP for seven days: CLAV 100 ng/kg, CDP 10 mg/kg",no significant difference
same,CSF/plasma ratio,[3]; in vivo,around 0.25
same,elimination half-life,[3]; in vivo,under two
same,plasma half-life,[3]; in vivo,over 2 hrs
same,volume of distribution,[3]; in vivo,around 15 liters
same,bioavailability,[3]; oral,64 to 75%
same,adverse reactions or contraindications,[4],no reported adverse reactions or contraindications
same,antibacterial activity,[5],weak antibacterial activity
"CO[C@@]1(NC(=O)C(C(=O)O)c2ccc(O)cc2)C(=O)N2C(C(=O)O)=C(CSc3nnnn3C)CO[C@@H]21 (stereo partly drawn) [Mox, 7-β-[2-carboxy-2-(4-hydroxyphenyl)acetamido]-7α-methoxy-3-[[(1-methyl-1H-tetrazol-5-yl)thio]methyl]-1-oxa-1-dethia-3-cephem-4-carboxylic acid]",number of seeds discovered after reversing the orientation of the maze,[6],significantly increased
same,allogrooming,[7],no effect
same,duration of play fighting,"[7]; sixty minutes after injection, one hr observation",significantly reduced
same,displacement of I125 HO-LVA binding,[8],did not significantly displace
same,reduction of specific binding of I125 DPAT,[9],ineffective
same,effect in the thirty-six binding assays,[10],no significant effect
same,accumulation with multiple injections,[11]; 8-12 hr intervals,no accumulation
same,elimination half-life,[11]; IM injection,2.3 h
same,time of peak plasma concentrations,[11]; after IM injection,one
same,CSF concentration as a percentage of serum concentration,"[11]; human, in vivo",20% and 15-20%
same,patients with satisfactory response to antibiotic therapy,[12],93%
